According to a melting point compilation (Tetko et al.):

| Structure (SMILES) | melting point |
| --- | --- |
| Cc1nc2nn(C)cc2c(=O)n1N | 147 to 148 °C |
| Cc1c(N/N=C(/C(=O)c2ccc([N+](=O)[O-])cc2)S(=O)(=O)c2ccccc2)c(=O)n(-c2ccccc2)n1C | 135 °C |
| COc1ccc(OC)c(C=CC(=O)O)c1 | 147 to 150 °C |
| Cn1nc(C(C)(C)C)cc1C(=O)O | 151 to 154 °C |
| CC1(C)C(=O)N(Br)C(=O)N1Cl | 164 °C |
| CCCCN1CCCCC1C(=O)Nc1c(C)cccc1C (stereo not given) | 107 °C |
| COc1ccc(-c2csc(/C(C#N)=N\Nc3ccc(O)cc3)n2)cc1 | 235 °C |
| CCCNC(=O)COC(=O)c1ccccc1 | 89.5 °C |
| CC(=O)Oc1c(-c2ccccc2)n(C(C)=O)c2cc([N+](=O)[O-])ccc12 | 178 °C |
| CCc1nc(N)nc(O)c1C | 303 to 304 °C |
| CCCCCCCCc1ccc(/N=N/c2ccc(OC(=O)CCCCCCC)cc2)cc1 | 58 to 63 °C |
| Ic1ccccc1Cn1cncn1 | 67 to 69 °C |
| CC(=O)OC(OC(C)=O)c1ccc2c(c1[N+](=O)[O-])C(=O)c1c(Cl)c(Cl)c(Cl)c(Cl)c1C2=O | 250 °C |
| C=CCCCCCCCCCCCCCCCCC1CC(=O)OC1=O (stereo not given) | 67.2 °C |
| OCc1csc2ccc(Br)cc12 | 79 to 81 °C |
| O=C(CCl)c1ccc(F)cc1 | 48 °C |
| CC(C)C[C@H](NC(=O)OCC1c2ccccc2-c2ccccc21)C(=O)O | 153 to 157 °C |
| Cc1c(C(=O)O)nnn1Cc1ccccc1 | 170 to 171 °C |
| O=C1C(c2ccccc2)=[N+]([O-])c2ccccc21 | 186 °C |
| CCCCC(O)C(=O)O (stereo not given) | 61 °C |
| CNC(c1ccccc1)C(NC)c1ccccc1 (stereo not given) | 48 to 51 °C |
| OCC(O)C(O)C(O)C(O)CO (stereo not given) | 190 °C |

| Structure (SMILES) | melting point |
| --- | --- |
| CN(C)C(=S)Cl | 42.5 °C |
| Cn1c(=O)n(-c2cccc(Cl)c2)c(=O)c2c3c(sc21)CCCC3 | 240 to 241 °C |
| CC(Cc1ccc(O)c(O)c1)(NN)C(=O)O (stereo not given) | 208 °C |
| OC1CN(C(c2ccccc2)c2ccccc2)C1 | 106 to 111 °C |
| Cc1nnc2sc(SCc3ccccc3)nn2c1=O | 171 to 172 °C |
| CC(C)(C)OCC1CO1 (stereo not given) | -70 °C |
| CC(C)(C)OC(=O)NC(Cc1cccc2ccccc12)C(=O)O (stereo not given) | 145 to 148 °C |
| O=C(CCl)Nc1ccc([N+](=O)[O-])cc1 | 185 to 186 °C |
| CCCCF | -134 °C |
| CC(C)(N)P(=O)(O)O | 287 to 290 °C |
| C#CC1(O)CCC2C3CCc4cc(O)ccc4C3CCC21C (stereo not given) | 141 °C |
| Cc1noc(-c2ccccc2)c1N=C=O | 79 to 81 °C |
| Oc1ccccc1S | 20 °C |
| O=C(O)C(Br)Br | 49 °C |
| CCn1cc(C(=O)O)c(=O)c2ccc(-c3ccncc3)cc21 | 290 °C |
| C[C@H](C(=O)O)c1ccccc1 | 29 to 32 °C |
| NC(=O)c1cc(F)cc(F)c1 | 156 °C |
| Cc1nc(-c2ccc(Br)s2)no1 | 54 to 55 °C |
| CNc1ccc2cc3ccc4c(c3nc2c1CO)COCN4S(C)(=O)=O | 205 °C |
| CCN(CC)c1ccc(C=C2SC(=S)NC2=O)cc1 | 163 °C |
| O=C(N=C=S)c1ccccc1 | 128 to 131 °C |
| COC(=O)c1scc(S(C)(=O)=O)c1N | 145 °C |

| Structure (SMILES) | melting point |
| --- | --- |
| O=C(O)c1cccc(Cl)c1F | 177 °C |
| N#C/C(=C\c1cccc(O)c1)c1nc2ccccc2[nH]1 | 299 to 300 °C |
| CC(C)=C1CC(=C(C)C)C1=O | 87 °C |
| O=C1NC(=O)C(Cl)C(=O)N1 | 320 °C |
| CCC(C)OC (stereo not given) | -100 °C |
| CCOc1ccc(C(C)O)cc1 (stereo not given) | 47 °C |
| CC1=CC(=O)CCC1 | -21 °C |
| Cc1c(CCO)c(=O)n2c([nH]c3ccccc32)c1C#N | 250 °C |
| CC(=O)Nc1ccc(OC(=O)c2ccccc2O)cc1 | 187 °C |
| O=C(O)c1c(Br)cc(Br)c(O)c1Br | 147 °C |
| Cc1nc([N+](=O)[O-])cn1-c1ccc([N+](=O)[O-])cc1 | 186 °C |
| COc1ccc(C(O)C(=O)O)cc1O (racemic) | 125 to 132 °C |
| O=[N+]([O-])c1ncc[nH]1 | 287 °C |
| CC1=CC(C)N=N1 (stereo not given) | 108 °C |
| O=C(O)c1cc(F)c(F)cc1[N+](=O)[O-] | 165 °C |
| CCOP(=O)(OCC)Oc1c2cccc1Cc1cccc(c1O)Cc1cccc(c1OP(=O)(OCC)OCC)Cc1cccc(c1O)C2 | 219 to 224 °C |
| O=C(N[N+](=O)[O-])c1ccccc1 | 143 °C |
| N=C(N)NCC1COc2ccccc2O1 (stereo not given) | 164 °C |
| CCNc1ccc2c(C(F)(F)F)cc(=O)oc2c1 | 158 to 159 °C |
| CC(=O)Nc1ccc(/C(=C\c2ccccc2NC(C)=O)C(=O)O)cc1 | 240 °C |
| Cn1ccc(=O)c2ccccc21 | 152 °C |
| CCC1COC(Cn2cncn2)(c2ccc(Cl)cc2Cl)O1 (stereo not given) | 84 °C |

| Structure (SMILES) | melting point |
| --- | --- |
| CC(=O)c1ccc(F)cc1Br | 48 to 50 °C |
| ClC(Cl)=CBr | -88.5 °C |
| O=C(O)c1cn(S(=O)(=O)c2ccccc2)c2ccccc12 | 232 °C |
| N#Cc1ncc(Cl)cc1Cl | 101 °C |
| CSc1scc2c1C(=NO)CC(C)(C)C2 | 151 to 154 °C |
| COc1cccc(C=C[N+](=O)[O-])c1 | 91 to 93 °C |
| Cc1cnc2ccccc2c1C | 73.5 °C |
| COc1ccc(C2(C)CCc3oc4ccc(Cl)cc4c3-c3oc(C)cc32)cc1 (stereo not given) | 144 °C |
| CC(=O)OC1C(C2COC(C)(C)O2)OC2OC(C)(C)OC21 (stereo not given) | 60 to 62 °C |
| CSc1nc2cc(N=Cc3ccc([N+](=O)[O-])cc3)ccc2[nH]1 | 259 to 260 °C |
| Oc1ccc2c3c1OC1C(O)C=CC4C(C2)NCCC341 (stereo not given) | 273 °C |
| Cc1cc(C(F)(F)F)n2nc(N)c(/N=N/c3cc(Cl)ccc3Cl)c2n1 | 215 °C |
| C=C(Br)c1ccccc1 | -44 °C |
| CN(C)CCc1c[nH]c2cccc(O)c12 | 174 °C |
| NC(=O)Nc1ccccc1 | 147 °C |
| CCOC=C(C#N)C(=O)OCC | 49.5 °C |
| Nc1cccc(C2OCCCO2)c1 | 75 to 76 °C |
| CSc1nnc(C(C)(C)C)c(=O)n1N | 126 °C |
| CC(=NO)c1ccccc1 | 60 °C |
| O=Cc1ccccc1OCc1ccccc1 | 47 °C |

Second part, the compound after the results:

| melting point | Structure (SMILES) |
| --- | --- |
| 64.7 °C | COC(=O)[C@H](CC(=O)O)Cc1ccc2ccccc2c1 |
| 45.5 °C | Cc1cc(Cl)c(Cl)c(Cl)c1 |
| 84 to 89 °C | CC(C)(C)OC(=O)N1c2ccccc2CC1CO (stereo not given) |
| 191 °C | COc1ccc(-c2cc(=O)c3c(O)c(OC)c(OC)cc3o2)cc1O |
| 96 to 97 °C | N#Cc1cc(Cl)nc(Cl)c1 |
| 192 to 195 °C | Sc1nc2ccccc2o1 |
| 135 °C | CC1=C(C(=O)O)CCC1(C)C |
| 164 °C | O=c1cc(-c2ccccc2)oc2ccc3ccccc3c12 |
| 199 to 200 °C | O=C1Nc2c(Br)cccc2C1=O |
| 151 °C | OCC(O)C(O)C(OC1OC(CO)C(O)C(O)C1O)C(O)CO (stereo not given) |
| 149 to 153 °C | CN(C)C(=S)NN |
| 34.5 °C | Oc1ccccc1C1CCCC1 |
| 117 °C | Nc1ccc(C(=O)c2ccccc2)cc1N |
| 130 °C | O=C=Nc1cccc2c(N=C=O)cccc12 |
| 34 °C | c1ccc(Cc2cccnc2)cc1 |
| 110 °C | COc1ccc(C(F)(F)F)cc1C(=O)O |
| 101 to 102 °C | CCOC(=O)c1cnn(C)c1N |
| 147 °C | N#Cc1ccc(O)c(F)c1F |
| 109 to 112 °C | CC(C)(C)OC(=O)NCCC(N)=S |
| 70 to 73 °C | CC(=O)Nc1ccc(F)cc1[N+](=O)[O-] |
| 240 °C | OC12CC3CC(CC(C3)C1)C2 |
| 127 to 129 °C | NC(Cc1cccc2ccccc12)=NO |
| -94 °C | CCCCCSC |
| 68 °C | c1cncc(-c2cccnc2)c1 |
| 65 °C | COc1cc(N=C=S)cc(OC)c1OC |

| melting point | Structure (SMILES) |
| --- | --- |
| 98 °C | CC12CCC(C(C(=O)c3ccccc3)C1=O)C2(C)C (stereo not given) |
| 96 °C | CCC(=C(c1ccccc1)c1ccc(OCCN(C)C)cc1)c1ccccc1 |
| 81 °C | COc1ccc(F)c(F)c1C#N |
| 65 °C | COc1cc(C)c(C=O)c(OC)c1 |
| 89 to 93 °C | CCOC(C)=C(C#N)C#N |
| 218 °C | O=C(O)CSc1ccccc1C(=O)O |
| 217 °C | NC(=O)NN=Cc1ccc([N+](=O)[O-])cc1 |
| -30 °C | CC12CC3CC(C1)CC(C)(C3)C2 |
| 175 to 177 °C | N#Cn1c(N)nc2ccccc21 |
| 86 °C | COC(=O)Cc1c(Cl)[nH]c(C)c1C(=O)OC |
| 32 °C | CC(=O)Oc1ccc(I)cc1 |
| 65 to 66 °C | O=C(c1ccc(Cl)cc1)C(Br)c1ccccc1 (stereo not given) |
| 147 °C | c1ccc(-c2cccc3cccc(-c4ccccc4)c23)cc1 |
| 218 °C | CC(=O)Nc1ccc(/N=N/c2ccc(N(Nc3ccc(NC(C)=O)cc3)C(C)=O)cc2)cc1 |
| 233 °C | FC(F)(F)c1n[nH]c(/N=C/c2ccc(Cl)cc2)n1 |
| 251 to 253 °C | O=C1Nc2ccc(Br)cc2C1=O |
| 226 to 228 °C | COc1cc(Br)cc2cc(C(=O)O)c(=O)oc12 |
| 93 to 97 °C | CS(=O)(=O)Nc1ccccc1 |
| 95 °C | O=C1OC(=O)c2c(F)c(F)c(F)c(F)c21 |
| 260 °C | COC(=O)Nc1nc2cc(C(=O)c3ccc(F)cc3)ccc2[nH]1 |
| 60 to 61 °C | ClCc1nc(-c2ccc(Cl)cc2)no1 |
| 88.5 °C | CCCCCCCCCCCCCCCCCCCCCCCCCC(=O)O |
| 137 to 139 °C | N#Cc1c(Cl)cccc1Oc1ccc(S(=O)(=O)Cl)cc1 |
| 100 to 101 °C | COC(=O)c1cc(C=O)cn1C |
